Test results: ChEMBL document CHEMBL1148629, “Pyrrolopyridazine MEK inhibitors” (Bioorg Med Chem Lett, 2006)

What was measured:
[1] = target: Dual specificity mitogen-activated protein kinase kinase 1 (Homo sapiens, UniProt Q02750); assay: Inhibitory activity against MEK
COLO 205 = assay: Antiproliferative activity against human tumor Colo205 cell line; format: functional
HT-29 = assay: Antiproliferative activity against human tumor HT29 cell line; format: functional
[2] = target: Vascular endothelial growth factor receptor 2 (Homo sapiens) (UniProt P35968); assay: Inhibitory activity against VEGFR2 upto 50 uM
Chain of Vascular endothelial growth factor receptor 2 (Homo sapiens) (P35968 whole entry): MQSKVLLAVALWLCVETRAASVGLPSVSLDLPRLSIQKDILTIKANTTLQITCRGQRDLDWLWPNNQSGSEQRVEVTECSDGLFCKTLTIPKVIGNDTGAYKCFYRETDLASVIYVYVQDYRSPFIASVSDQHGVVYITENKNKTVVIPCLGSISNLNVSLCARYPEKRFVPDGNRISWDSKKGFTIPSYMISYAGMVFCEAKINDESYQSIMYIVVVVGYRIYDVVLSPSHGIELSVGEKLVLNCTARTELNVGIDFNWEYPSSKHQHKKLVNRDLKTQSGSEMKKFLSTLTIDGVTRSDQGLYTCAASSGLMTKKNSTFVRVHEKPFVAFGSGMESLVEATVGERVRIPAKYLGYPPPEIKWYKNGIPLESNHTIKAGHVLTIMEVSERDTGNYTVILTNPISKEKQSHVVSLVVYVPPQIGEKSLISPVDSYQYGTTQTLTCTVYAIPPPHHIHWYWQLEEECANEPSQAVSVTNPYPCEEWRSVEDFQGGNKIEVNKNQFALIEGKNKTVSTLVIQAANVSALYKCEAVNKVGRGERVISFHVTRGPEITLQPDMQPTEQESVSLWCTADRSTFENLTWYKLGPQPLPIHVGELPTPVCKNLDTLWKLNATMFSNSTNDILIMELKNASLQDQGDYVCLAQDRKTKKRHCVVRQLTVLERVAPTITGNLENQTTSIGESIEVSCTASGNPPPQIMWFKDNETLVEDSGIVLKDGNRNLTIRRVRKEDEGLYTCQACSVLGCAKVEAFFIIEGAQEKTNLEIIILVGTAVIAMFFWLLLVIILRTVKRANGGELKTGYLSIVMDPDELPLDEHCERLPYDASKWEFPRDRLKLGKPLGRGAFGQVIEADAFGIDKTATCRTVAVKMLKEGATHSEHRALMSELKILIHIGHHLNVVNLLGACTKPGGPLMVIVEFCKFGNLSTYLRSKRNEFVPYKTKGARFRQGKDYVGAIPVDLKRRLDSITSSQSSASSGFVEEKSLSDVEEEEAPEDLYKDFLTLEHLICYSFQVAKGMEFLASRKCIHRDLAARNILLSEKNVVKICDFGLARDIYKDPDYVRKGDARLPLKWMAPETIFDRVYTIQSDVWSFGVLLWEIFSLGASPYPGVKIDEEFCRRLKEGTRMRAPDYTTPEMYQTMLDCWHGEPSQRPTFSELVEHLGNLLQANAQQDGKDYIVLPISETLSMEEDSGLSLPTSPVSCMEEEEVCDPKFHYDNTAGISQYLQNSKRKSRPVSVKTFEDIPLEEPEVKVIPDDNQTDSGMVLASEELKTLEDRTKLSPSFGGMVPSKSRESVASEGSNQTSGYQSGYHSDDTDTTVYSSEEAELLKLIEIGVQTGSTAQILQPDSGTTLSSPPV

Chain of Dual specificity mitogen-activated protein kinase kinase 1 (Q02750 whole entry): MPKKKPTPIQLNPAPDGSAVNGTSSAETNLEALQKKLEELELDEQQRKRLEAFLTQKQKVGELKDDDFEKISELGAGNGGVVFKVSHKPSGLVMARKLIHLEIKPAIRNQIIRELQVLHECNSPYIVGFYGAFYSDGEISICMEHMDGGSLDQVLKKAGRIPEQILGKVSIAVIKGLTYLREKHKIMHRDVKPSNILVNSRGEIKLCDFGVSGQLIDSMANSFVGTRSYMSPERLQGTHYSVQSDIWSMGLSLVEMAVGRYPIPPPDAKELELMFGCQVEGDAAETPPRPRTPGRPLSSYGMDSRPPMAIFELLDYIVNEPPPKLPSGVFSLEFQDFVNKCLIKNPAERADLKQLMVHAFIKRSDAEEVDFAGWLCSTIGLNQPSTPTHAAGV

SMILES | IC50 [1] | Activity (COLO 205) | Activity (HT-29) | inhibition [2]
CCOC(=O)c1cn2ncc(C#N)c(Nc3ccc(Nc4ccccc4)cc3)c2c1C | 2320 nM | – | – | –
CC(=O)Nc1cccc(C(=O)Nc2cn3ncc(C#N)c(Nc4ccc(Oc5ccccc5)cc4)c3c2C)c1 | 14 nM | 1.86 µM | 1.34 µM | –
COc1cccc(Oc2ccc(Nc3c(C#N)cnn4cc(NC(=O)OCCN5CCOCC5)c(C)c34)cc2)c1 | 76 nM | 0.72 µM | 2.35 µM | –
CNC(=O)Nc1cn2ncc(C#N)c(Nc3ccc(Oc4ccccc4)cc3)c2c1C | 18 nM | – | 7.38 µM | –
Cc1ccn2ncc(C#N)c(Nc3ccc(Oc4ccccc4)cc3)c12 | 241 nM | >10 µM | >10 µM | –
Cc1c(C(=O)O)cn2ncc(CNS(C)(=O)=O)c(Nc3ccc(Oc4ccccc4)cc3)c12 | > 25000 nM | – | – | –
Cc1c(C(=O)O)cn2ncc(C#N)c(Nc3ccc(Oc4ccccc4)cc3)c12 | 147 nM | – | – | –
Cc1c(NC(=O)OCCN2CCOCC2)cn2ncc(C#N)c(Nc3ccc(Oc4ccccc4)cc3)c12 | 58 nM | 2.88 µM | 3.76 µM | < 5%
CCOC(=O)c1cn2ncc(C#N)c(Nc3ccccc3)c2c1C | > 25000 nM | – | – | –
Cc1c(C(=O)O)cn2ncc(CN)c(Nc3ccc(Oc4ccccc4)cc3)c12 | > 25000 nM | – | – | –
Cc1c(NS(=O)(=O)c2ccccc2)cn2ncc(C#N)c(Nc3ccc(Oc4ccccc4)cc3)c12 | 14600 nM | – | – | –
CCOC(=O)c1cn2ncc(C#N)c(Nc3ccc(OCc4ccccc4)cc3)c2c1C | > 25000 nM | – | – | –
Cc1c(C(=O)NCCN2CCOCC2)cn2ncc(C#N)c(Nc3ccc(Oc4ccccc4)cc3)c12 | 386 nM | – | – | –
CC(=O)NCc1cnn2cc(C(=O)O)c(C)c2c1Nc1ccc(Oc2ccccc2)cc1 | > 25000 nM | – | – | –
CCOCc1c(C(=O)OCC)cn2ncc(C#N)c(Nc3ccc(Oc4ccccc4)cc3)c12 | 331 nM | – | – | –
COc1cccc(Oc2ccc(Nc3c(C#N)cnn4cc(NC(=O)NCCN5CCOCC5)c(C)c34)cc2)c1 | 29 nM | – | – | –
COc1ccccc1Oc1ccc(Nc2c(C#N)cnn3cc(NC(=O)NCCN4CCOCC4)c(C)c23)cc1 | 24 nM | – | – | –
CCOC(=O)c1cn2ncc(C#N)c(Nc3ccc(Oc4ccccc4)cc3)c2c1CO | 203 nM | – | – | –

SMILES | IC50 [1] | Activity (COLO 205) | Activity (HT-29) | inhibition [2]
CCOC(=O)c1cn2ncc(C#N)c(Oc3ccc(Oc4ccccc4)cc3)c2c1C | 5420 nM | – | – | –
CCOC(=O)c1cn2ncnc(Nc3ccc(Oc4ccccc4)cc3)c2c1C | 3470 nM | – | – | –
CCOC(=O)c1cn2ncc(C#N)c(Nc3ccc(C(=O)c4ccccc4)cc3)c2c1C | 1110 nM | – | – | –
COC(=O)Nc1cn2ncc(C#N)c(Nc3ccc(Oc4ccccc4)cc3)c2c1C | 23 nM | – | 7.64 µM | –
Cc1c(-c2nc3ccccc3[nH]2)cn2ncc(C#N)c(Nc3ccc(Oc4ccccc4)cc3)c12 | 168 nM | – | – | –
Cc1c(C(C)(C)O)cn2ncc(C#N)c(Nc3ccc(Oc4ccccc4)cc3)c12 | > 25000 nM | – | – | –
CCOC(=O)c1cn2ncc(C#N)c(Nc3ccc(Cc4ccccc4)cc3)c2c1C | 68 nM | – | – | –
Cc1c(NC(=O)NCCN2CCOCC2)cn2ncc(C#N)c(Nc3ccc(Oc4ccccc4)cc3)c12 | 36 nM | 3.9 µM | 0.86 µM | < 5%
Cc1c(NC(=O)c2ccccc2)cn2ncc(C#N)c(Nc3ccc(Oc4ccccc4)cc3)c12 | 42 nM | 2.42 µM | 2.13 µM | –
CCOC(=O)c1cn2ncc(C#N)c(Nc3ccc(Oc4ccc(Cl)cc4)cc3)c2c1C | 642 nM | – | – | –
Cc1c(N)cn2ncc(C#N)c(Nc3ccc(Oc4ccccc4)cc3)c12 | 190 nM | – | – | –
CCOC(=O)c1cn2ncc(C#N)c(NCc3ccc(Oc4ccccc4)cc3)c2c1C | > 25000 nM | – | – | –
CCOC(=O)c1cn2ncc(C#N)c(Nc3ccc(Oc4ccccc4)cc3)c2c1COCCOC | 566 nM | – | – | –
CCOC(=O)c1cn2ncc(C#N)c(Nc3ccc(-c4ccccc4)cc3)c2c1C | > 25000 nM | – | – | –
COc1ccccc1Oc1ccc(Nc2c(C#N)cnn3cc(NC(=O)OCCN4CCOCC4)c(C)c23)cc1 | 48 nM | 2.06 µM | 3.78 µM | –
Cc1c(OCCN2CCOCC2)cn2ncc(C#N)c(Nc3ccc(Oc4ccccc4)cc3)c12 | 521 nM | – | – | –
Cc1c(NC(=O)NCCN2CCOCC2)cn2ncc(C#N)c(Nc3ccc(Oc4ccccc4F)cc3)c12 | 33 nM | – | – | –
